Measurements taken from ChEMBL document CHEMBL5321208, “The effect of side chain variations on quinazoline-pyrimidine G-quadruplex DNA ligands” (Eur J Med Chem, 2023).
Activity calls are given as the source filed them. The rule behind the calls is not given here.

What was measured:
dsDNA = test: Binding affinity to double stranded DNA (unknown origin) assessed as thermal stabilization at 1 to 8 uM measured at 10 to 95 degreeC by FRET analysis; format: nucleic-acid assay; settings: dose 1-8 µM
Quadruplex DNA [1] = test: Binding affinity to FAM/TAMRA-labelled parallel KRAS G4 DNA (unknown origin) assessed as thermal stabilization at 1 to 8 uM measured at 10 to 95 degreeC by FRET analysis; format: nucleic-acid assay; settings: dose 1-8 µM
Quadruplex DNA [2] = test: Binding affinity to FAM/TAMRA-labelled parallel c-MYC Pu24T G4 DNA (unknown origin) assessed as thermal stabilization at 1 to 8 uM measured at 10 to 95 degreeC by FRET analysis; format: nucleic-acid assay; settings: dose 1-8 µM
Quadruplex DNA [3] = test: Binding affinity to FAM/TAMRA-labelled c-MYC Pu22 G4 DNA (unknown origin) assessed as thermal stabilization at 1 to 8 uM measured at 10 to 95 degreeC by FRET analysis; format: nucleic-acid assay; settings: dose 1-8 µM
Quadruplex DNA [4] = test: Binding affinity to parallel c-MYC Pu24T G4 DNA (unknown origin) assessed as change in topology at 5 uM by CD spectra analysis; format: nucleic-acid assay
Quadruplex DNA [5] = test: Binding affinity to FAM/TAMRA-labelled c-KIT2 G4 DNA (unknown origin) assessed as thermal stabilization at 1 to 8 uM measured at 10 to 95 degreeC by FRET analysis; format: nucleic-acid assay; settings: dose 1-8 µM
Quadruplex DNA [6] = test: Binding affinity to FAM/TAMRA-labelled parallel c-MYC Pu24T G4 DNA (unknown origin) assessed as thermal stabilization in the presence of 15 equivalents of double stranded DNA by FRET competition assay; format: nucleic-acid assay
Quadruplex DNA [7] = test: Binding affinity to FAM/TAMRA-labelled parallel c-MYC Pu24T G4 DNA (unknown origin) assessed as thermal stabilization by measuring change in melting temperature at 2 uM in the presence of 100 equivalents of double stranded DNA by FRET competition assay; format: nucleic-acid assay
Quadruplex DNA [8] = test: Binding affinity to FAM/TAMRA-labelled antiparallel TBA G4 DNA (unknown origin) assessed as thermal stabilization at 1 to 8 uM measured at 10 to 95 degreeC by FRET analysis; format: nucleic-acid assay; settings: dose 1-8 µM
Quadruplex DNA [9] = test: Binding affinity to FAM/TAMRA-labelled parallel KRAS G4 DNA (unknown origin) assessed as thermal stabilization by measuring change in melting temperature at 2 uM in the presence of 100 equivalents of double stranded DNA by FRET competition assay; format: nucleic-acid assay
Quadruplex DNA [10] = test: Binding affinity to FAM/TAMRA-labelled antiparallel Bom17 G4 DNA (unknown origin) assessed as thermal stabilization at 1 to 8 uM measured at 10 to 95 degreeC by FRET analysis; format: nucleic-acid assay; settings: dose 1-8 µM
Quadruplex DNA [11] = test: Binding affinity to FAM/TAMRA-labelled c-KIT1 G4 DNA (unknown origin) assessed as thermal stabilization at 1 to 8 uM measured at 10 to 95 degreeC by FRET analysis; format: nucleic-acid assay; settings: dose 1-8 µM
Quadruplex DNA [12] = test: Binding affinity to FAM/TAMRA-labelled 21g G4 DNA (unknown origin) assessed as thermal stabilization at 1 to 8 uM measured at 10 to 95 degreeC by FRET analysis; format: nucleic-acid assay; settings: dose 1-8 µM
Quadruplex DNA [13] = test: Binding affinity to 5'-Cy5-labelled parallel c-MYC Pu24T G4 DNA (unknown origin) assessed as dissociation constant by MST analysis; format: nucleic-acid assay
Quadruplex DNA [14] = test: Binding affinity to FAM/TAMRA-labelled parallel 25ceb G4 DNA (unknown origin) assessed as thermal stabilization at 1 to 8 uM measured at 10 to 95 degreeC by FRET analysis; format: nucleic-acid assay; settings: dose 1-8 µM
Quadruplex DNA [15] = test: Binding affinity to parallel c-MYC Pu24T G4 DNA (unknown origin) assessed as thermal stabilization by measuring change in melting temperature at 5 uM measured at 1:1 DNA to ligand ratio by CD spectra analysis; format: nucleic-acid assay
Quadruplex DNA [16] = test: Binding affinity to FAM/TAMRA-labelled parallel KRAS G4 DNA (unknown origin) assessed as thermal stabilization in the presence of 15 equivalents of double stranded DNA by FRET competition assay; format: nucleic-acid assay
[17] = Antitumor activity against KPC mouse pancreatic cancer organoid expressing lentiviral modified GFP co-cultured with WT C57BL/6J mouse pancreatic stellate cells expressing mKate2 assessed as inhibition of cell growth incubated for 5 days by resazurin dye based fluorescence microscopic analysis; format: functional, tissue-based; settings: 120 h
[18] = Cytotoxicity against wildtype C57BL/6J mouse cancer activated fibroblast cells assessed as inhibition of cell growth incubated for 5 days by resazurin dye based fluorescence microscopic analysis; format: toxicity

CCOC(=O)CCN1CCN(c2cc(C)nc(Nc3nc(C)c4ccc5c(c4n3)CCCC5)n2)CC1
Activity (dsDNA): inactive | Activity (Quadruplex DNA [1]): inactive | Activity (Quadruplex DNA [2]): inactive

Cc1cc(N2CCN(C(=O)OC(C)(C)C)CC2)nc(Nc2nc(C)c3ccc4c(c3n2)CCCC4)n1
Activity (dsDNA): inactive | Activity (Quadruplex DNA [1]): inactive | Activity (Quadruplex DNA [2]): inactive

Cc1cc(NCCCN2CCCC2)nc(Nc2nc(C)c3ccc4c(c3n2)CCCC4)n1
Activity (Quadruplex DNA [3]): Active | Activity (Quadruplex DNA [4]): inactive | Activity (Quadruplex DNA [5]): Active | Activity (Quadruplex DNA [6]): Active | ΔTm (Quadruplex DNA [7]): 7 °C | Activity (Quadruplex DNA [8]): inactive | Activity (dsDNA): inactive | ΔTm (Quadruplex DNA [9]): 10 °C | Activity (Quadruplex DNA [10]): inactive | Activity (Quadruplex DNA [11]): Active | Activity (Quadruplex DNA [12]): Active | Kd (Quadruplex DNA [13]): 245 nM | Activity (Quadruplex DNA [14]): inactive | ΔTm (Quadruplex DNA [15]): 8 °C | Activity (Quadruplex DNA [2]): Active | Activity (Quadruplex DNA [16]): Active

Cc1cc(N2CCN(C)CC2)nc(Nc2nc(C)c3ccc4c(c3n2)CCCC4)n1
Activity (dsDNA): inactive | Activity (Quadruplex DNA [2]): Active

Cc1cc(N(C)C)nc(Nc2nc(C)c3ccc4c(c3n2)CCCC4)n1
Activity (dsDNA): inactive | Activity (Quadruplex DNA [2]): Active

Cc1cc(N2CCN(c3ncccn3)CC2)nc(Nc2nc(C)c3ccc4c(c3n2)CCCC4)n1
Activity (dsDNA): inactive | Activity (Quadruplex DNA [1]): inactive | Activity (Quadruplex DNA [2]): inactive

Cc1cc(NCCN2CCNCC2)nc(Nc2nc(C)c3ccc4c(c3n2)CCCC4)n1
Activity (dsDNA): inactive | Activity (Quadruplex DNA [2]): Active

CCN(CC)CCCNc1cc(C)nc(Nc2nc(C)c3ccc4c(c3n2)CCCC4)n1
Activity (Quadruplex DNA [3]): Active | Activity (Quadruplex DNA [4]): inactive | Activity (Quadruplex DNA [5]): Active | Activity (Quadruplex DNA [6]): Active | ΔTm (Quadruplex DNA [7]): 7 °C | Activity (Quadruplex DNA [8]): inactive | Activity (dsDNA): inactive | ΔTm (Quadruplex DNA [9]): 10 °C | Activity (Quadruplex DNA [10]): inactive | Activity (Quadruplex DNA [11]): Active | Activity (Quadruplex DNA [12]): Active | Kd (Quadruplex DNA [13]): 230 nM | Activity (Quadruplex DNA [14]): inactive | ΔTm (Quadruplex DNA [15]): 7 °C | Activity (Quadruplex DNA [2]): Active | Activity (Quadruplex DNA [16]): Active

Cc1cc(N2CCNCC2)nc(Nc2nc(C)c3ccc4c(c3n2)CCC4)n1
Activity (dsDNA): inactive | Activity (Quadruplex DNA [1]): Active | Activity (Quadruplex DNA [2]): Active

Cc1cc(NCCCN2CCNCC2)nc(Nc2nc(C)c3ccc4c(c3n2)CCCC4)n1
Activity (dsDNA): inactive | Activity (Quadruplex DNA [2]): Active

Cc1cc(NCCN2CCOCC2)nc(Nc2nc(C)c3ccc4c(c3n2)CCCC4)n1
Activity (dsDNA): inactive

Cc1cc(NCCCN2CCCCC2)nc(Nc2nc(C)c3ccc4c(c3n2)CCC4)n1
Activity (Quadruplex DNA [3]): Active | Activity (Quadruplex DNA [4]): inactive | Activity (Quadruplex DNA [5]): Active | Activity (Quadruplex DNA [6]): Active | IC50 [17]: 793 nM | ΔTm (Quadruplex DNA [7]): 7 °C | Activity (Quadruplex DNA [8]): inactive | Activity (dsDNA): inactive | ΔTm (Quadruplex DNA [9]): 10 °C | Activity (Quadruplex DNA [10]): inactive | IC50 at 5 days [18]: > 500 nM | Activity (Quadruplex DNA [11]): Active | Activity (Quadruplex DNA [12]): Active | Kd (Quadruplex DNA [13]): 285 nM | Activity (Quadruplex DNA [14]): inactive | ΔTm (Quadruplex DNA [15]): 4 °C | Activity (Quadruplex DNA [2]): Active | Activity (Quadruplex DNA [16]): Active

CCOC(=O)CCN1CCN(c2cc(C)nc(Nc3nc(C)c4ccc5c(c4n3)CCC5)n2)CC1
Activity (dsDNA): inactive | Activity (Quadruplex DNA [1]): inactive | Activity (Quadruplex DNA [2]): inactive

CCN(CC)CCCCCNc1cc(C)nc(Nc2nc(C)c3ccc4c(c3n2)CCCC4)n1
Activity (Quadruplex DNA [2]): Active

Cc1cc(NCCCN2CCN(C)CC2)nc(Nc2nc(C)c3ccc4c(c3n2)CCCC4)n1
Activity (Quadruplex DNA [3]): Active | Activity (Quadruplex DNA [4]): inactive | Activity (Quadruplex DNA [5]): Active | Activity (Quadruplex DNA [6]): Active | ΔTm (Quadruplex DNA [7]): 7 °C | Activity (Quadruplex DNA [8]): inactive | Activity (dsDNA): inactive | ΔTm (Quadruplex DNA [9]): 10 °C | Activity (Quadruplex DNA [10]): inactive | Activity (Quadruplex DNA [11]): Active | Activity (Quadruplex DNA [12]): Active | Kd (Quadruplex DNA [13]): 280 nM | Activity (Quadruplex DNA [14]): inactive | ΔTm (Quadruplex DNA [15]): 6 °C | Activity (Quadruplex DNA [2]): Active | Activity (Quadruplex DNA [16]): Active
